{
  "source": "patent US8178579B2",
  "about": "“Dioxanes and uses thereof” (President and Fellows of Harvard College, priority 2001, dated 2012)",
  "key": {"α-tubulin deacetylation": {"test_system": "α-tubulin deacetylation", "test": "acetylated α-tubulin in cells (AcTubulin cytoblot, immunofluorescence, Western blot)", "type": "cell-based, human", "details": "for effect on tubulin deacetylation / α-tubulin acetylation in cells: A549 (also BS-C-1) cells, tubacin/JCWII114, niltubacin/JCWII153 2 μM, TSA 100 nM-4 μM, library ~2-5 μM, 18 h", "procedure": "(§1) A549 cells were seeded at a density of 4,000 cells/50 μl in DMEM+ in white tissue culture-treated 384-well plates (Nalge Nunc) using a Multidrop 384 liquid dispenser (Labsystems). Library small molecules were pinned twice (100-150 nl/pin) from ˜1 mM stock solutions (DMSO) and incubated for 18 hours. For the ITSA1+AcTubulin assay, ITSA1 (50 μM) was added four hours after pin-transfer of library molecules. Media was aspirated with a 16-channel wand. For the acetylated α-tubulin cytoblot (AcTubulin), 40 μl/well of fixation solution (3.7% formaldehyde (1:10 from 37% stock) in Tris-buffered saline (TBS, 0.15 M NaCl, 0.02 M Tris-Cl, pH 7.4) was added and plates incubated for twenty minutes at room temperature. After aspiration, 30 μl 100% methanol (−20° C.) was added and incubated for five minutes at room temperature. After aspirating and washing three times with 90 μl of antibody dilution buffer (ADB, TBS/2% bovine serum albumin, 0.1% TritonX-100) the wells were blocked for twenty minutes in ADB. After aspirating, 20 μl/well of ADB containing anti-acetylated α-tubulin antibody (mouse; 1:1000) and anti-mouse IgG horseradish peroxidase (HRP)-conjugated antibody (1:750) was added and incubated overnight (4° C.). For the anti-acetyl lysine cytoblot (AcLysine), 40 μl/well of fixation solution (95% ethanol/5% acetic acid, −20° C.) was added and plates incubated for five minutes at room temperature. Wells were aspirated, washed, and blocked in ADB as for the AcTubulin protocol. After aspirating, 20 μl/well of ADB containing anti-acetylated lysine (rabbit; 1:375) and anti-rabbit IgG-HRP conjugated antibody (1:750) was added and incubated overnight (4° C.). For the anti-acetylated histone H3 (AcHistH3) and anti-acetylated histone H4 (AcHistH4) cytoblots, cells were fixed, washed, and blocked in ADB as for the AcLysine cytoblot. After aspirating, 20 μl/well of ADB containing anti-acetylated histone H3 antibody (rabbit, 1:500) or anti-acetylated histone H4 antibody (rabbit, 1:500) was added and incubated for two hours at room temperature. Wells were aspirated and washed twice with 80 μl of ADB. After aspirating, 20 μl/well of ADB containing anti-rabbit IgG-HRP conjugated antibody (1:1000) was added and incubated for two hours (room temperature). For the AcTubulin and AcLysine assays, plates were washed three times with TBS before adding 20 μl/well of enhanced chemiluminescent (ECL) mixture. For the AcHistH3 and AcHistH4 assays, plates were washed three times with 80 μl TBS with 1% Triton X-100 and once with 80 μl TBS before adding 20 μl/well of ECL mixture. Plates were read on an Analyst plate reader (LJL Biosystems) with an integration time of 0.1 seconds.\n(§2) 1,3-dioxanes from single polystyrene macrobeads were prepared as 1-2 mM stock solutions in DMSO as described [Hubbert, C., Guardiola, A., Shao, R., Kawaguchi, Y., Ito, A., Nixon, A., Yoshida, M., Wang, X. F., and Yao, T. P. (2002). HDAC6 is a microtubule-associated deacetylase. Nature 417, 455-458]. Bead decoding and structure determination were as described [See for example, Hubbert, C., Guardiola, A., Shao, R., Kawaguchi, Y., Ito, A., Nixon, A., Yoshida, M., Wang, X. F., and Yao, T. P. (2002). HDAC6 is a microtubule-associated deacetylase. Nature 417, 455-458; and Piperno, G., LeDizet, M., and Chang, X. J. (1987). Microtubules containing acetylated alpha-tubulin in mammalian cells in culture. J. Cell Biol. 104, 289-302]. Small molecules (˜2-5 μM) of interest were retested using a sample from the plate of stock solutions by fluorescence microscopy and comparison to the effects of trichostatin (300 nM to 1 μM).\n(§3) A549 cells were seeded at a density of 50,000/200 μl in DMEM+ on the surface of glass coverslips on top of Parafilm in a 10 cm dish and allowed to attach overnight. For detection of acetylated α-tubulin, cells were permeabilized and fixed with 100 mM K-PIPES, pH 6.8, 10 mM EGTA, 1 mM MgCl2, 0.2% triton X-100, 0.2% glutaraldehyde for fifteen minutes. […]"}, "A549 cells": {"test_system": "A549 cells", "test": "mitotic abnormalities by immunofluorescence", "type": "cell-based, human", "details": "18 h or 24 h treatment, TSA 10 μM in FIG. 42C", "procedure": "Detection of acetylated α-tubulin and acetylated histones by immunofluorescence was performed as described in Example 6 above. For determining microtubule stability, A549 cells were treated as indicated, fixed in glutaraldehyde, and stained for acetylated α-tubulin and total α-tubulin in antibody dilution buffer (ADB, Tris-buffered saline (TBS), 0.15 M NaCl, 0.02 M Tris-Cl, pH 7.4, with 2% bovine serum albumin and 0.1% Triton-X 100). For cold-depolymerization, cells were incubated at 4° C. or 37° C. for an additional 90 minutes before fixation. For calcium depolymerization, cells were incubated at 37° C. for 10 minutes in a microtubule-stabilizing buffer (0.2% NP-40, 5 mM MgCl2, 2 mM EGTA, 2 M glycerol, 100 mM PIPES, pH 6.8) with and without the addition of CaCl2 (2 mM) before glutaraldehyde fixation. For co-localization experiments, biotubacin (50 μM) treated A549 cells were fixed in 3.7% formaldehyde in TBS and processed as for detecting acetylated α-tubulin (See Example 6 above) with biotubacin detected using streptavidin-TR (1:500). HDAC6 was detected using a rabbit polyclonal antibody (1:250-1:750; C.M.G., unpublished data) under the conditions used to detect acetylated α-tubulin (See Example 6 above). Filamentous actin in HT-1080 cells was detected using TR-conjugated phalloidin (1 μg/mL), and depolymerized actin using FITC-conjugated deoxyribonuclease (10 μg/mL), following fixation in 3.7% formaldehyde in TBS. p58 (1:100) in NIH-3T3 cells was detected after fixation in 3.7% formaldehyde in TBS. Images for these experiments were collected on a Zeiss LSM510 confocal scanning laser microscope at the appropriate wavelengths using the accompanying software and processed with Adobe Photoshop. Deconvoluted serial images of TSA and DMSO treated A549 cells were obtained by taking sections (8μ) on a Zeiss Axioskop 2 microscope using an AxioCam camera and the accompanying software. Rat hippocampal neuronal cultures were fixed at room temperature for 15 min in phosphate-buffered saline (PBS) containing 4% paraformaldehyde. […]"}, "histone deacetylation": {"test_system": "histone deacetylation", "test": "acetylated lysine / acetylated histone in cells (AcLysine cytoblot, immunofluorescence, Western blot)", "type": "cell-based, human", "details": "A549 (also BS-C-1) cells, tubacin, niltubacin 2 μM, histacin 20 μM, library ~2-5 μM, 18 h", "procedure": "as §1, §2, §3"}, "HDAC6F": {"biological_target": "T1, HDAC6F (Homo sapiens, UniProt Q9UBN7)", "T1 construct": "made in house; host or cells: TAg Jurkat cells, transient transfection, anti-FLAG M2 immunoprecipitation", "T1 sequence (Q9UBN7 1-1215)": "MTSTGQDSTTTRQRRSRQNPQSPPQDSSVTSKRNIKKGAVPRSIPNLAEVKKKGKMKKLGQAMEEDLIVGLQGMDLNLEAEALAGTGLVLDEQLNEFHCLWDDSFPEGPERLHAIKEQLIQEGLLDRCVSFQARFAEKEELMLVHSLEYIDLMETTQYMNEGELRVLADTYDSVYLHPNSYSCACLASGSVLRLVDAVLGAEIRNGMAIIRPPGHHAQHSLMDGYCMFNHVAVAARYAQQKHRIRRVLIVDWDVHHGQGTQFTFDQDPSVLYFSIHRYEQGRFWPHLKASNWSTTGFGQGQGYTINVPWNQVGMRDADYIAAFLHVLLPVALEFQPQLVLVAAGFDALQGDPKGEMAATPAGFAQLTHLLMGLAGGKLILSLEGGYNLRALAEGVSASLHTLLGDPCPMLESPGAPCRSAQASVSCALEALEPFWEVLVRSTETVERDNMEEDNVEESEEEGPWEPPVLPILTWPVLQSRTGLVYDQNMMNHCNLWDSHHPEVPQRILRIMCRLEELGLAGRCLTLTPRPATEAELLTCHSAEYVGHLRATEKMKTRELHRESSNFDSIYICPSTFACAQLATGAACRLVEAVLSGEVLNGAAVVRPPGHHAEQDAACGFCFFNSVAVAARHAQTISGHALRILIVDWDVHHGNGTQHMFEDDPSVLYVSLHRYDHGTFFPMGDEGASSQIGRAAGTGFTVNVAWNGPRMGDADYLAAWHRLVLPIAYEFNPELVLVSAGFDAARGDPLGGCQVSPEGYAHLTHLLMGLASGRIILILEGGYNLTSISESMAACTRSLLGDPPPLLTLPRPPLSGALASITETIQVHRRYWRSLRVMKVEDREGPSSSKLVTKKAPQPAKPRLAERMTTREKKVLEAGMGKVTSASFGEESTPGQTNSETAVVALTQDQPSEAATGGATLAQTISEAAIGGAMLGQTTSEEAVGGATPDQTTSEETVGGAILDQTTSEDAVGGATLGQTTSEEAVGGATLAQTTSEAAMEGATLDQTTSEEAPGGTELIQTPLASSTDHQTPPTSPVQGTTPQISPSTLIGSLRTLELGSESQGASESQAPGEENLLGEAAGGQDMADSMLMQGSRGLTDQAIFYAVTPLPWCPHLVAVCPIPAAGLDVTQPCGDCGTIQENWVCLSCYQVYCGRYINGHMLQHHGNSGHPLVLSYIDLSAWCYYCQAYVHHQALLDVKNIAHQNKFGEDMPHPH", "test": "in vitro tubulin deacetylase (TDAC) assay, immunoprecipitated wild-type HDAC6F, MAP-stabilized tubulin", "type": "biochemical", "details": "TSA 300 nM or 1 μM, tubacin, niltubacin, trapoxin B 1 μM", "excerpt": "Tubulin and MAPs were isolated from bovine brain as described [See http://mitchison.med.harvard.edu/protocols/tubprep.html]. Whole brain and fractions from phosphocellulose chromatography were blotted for HDAC6 and acetylated α-tubulin. Cultured hippocampal neurons from dissociated 1-day old rat brains were transfected with an enhanced green fluorescent protein (EGFP)-actin construct at 4-5 days using the calcium phosphate method [E. N. Star, D. J. Kwiatkowski and V. N. Murthy, Nat. Neurosci. […] K. Miranti and M. E. Greenberg, J. Neurosci. […] Transfected cultures were allowed to grow for at least 48 h before the addition of experimental compounds.\n[^3H]Acetate-incorporated histones were isolated from butyrate-treated HeLa cells as described [J. Taunton, C. […] Immunoprecipitates were incubated with acetylated histones and HDAC activity determined by scintillation counting as described [J. Taunton, C. […] TDAC assays were performed with immunoprecipitates using MAP-stabilized microtubules polymerized from MAP-rich tubulin fraction as described [C. […] Reactions were incubated (2 h) at 37° C., then incubated on ice (15 min)."}, "[1]": {"details": "listed as carboxylic acid analogue of JCWII114"}},
  "note": "Entries after “also recorded” stand apart in the source; their conditions may differ. Non-standard residues stand in square brackets, D forms with d. Residues, ends and D or L forms follow the SMILES beside them. Aoe = N[C@@H](CCCCCC(=O)[C@@H]1CO1)C(=O)O",
  "data": [
    {"smiles": "C[C@@H]1NC(=O)[C@H]2CCCN2C(=O)[C@H](CCCCCC(=O)[C@@H]2CO2)NC(=O)[C@@H](C)NC1=O", "note": "[HC toxin, reference compound]", "values": [
      {"measurement": "effect on tubulin deacetylation / α-tubulin acetylation in cells", "setting": "α-tubulin deacetylation", "value": "have no effect upon α-tubulin acetylation levels; also recorded: no effect on tubulin acetylation"},
      {"measurement": "mitotic abnormalities", "setting": "A549 cells", "value": "caused a significant number of abnormal mitotic cells"}
    ]},
    {"smiles": "O=C(O)CCCCCCC(=O)Nc1ccc([C@@H]2OC(c3ccc(CO)cc3)C[C@H](CSc3nc(-c4ccccc4)c(-c4ccccc4)o3)O2)cc1", "note": "(stereo partly shown) [JCWII153]", "values": [
      {"measurement": "effect on tubulin deacetylation / α-tubulin acetylation in cells", "setting": "α-tubulin deacetylation", "value": "inactivity; also recorded: had no effect on α-tubulin or histone acetylation"},
      {"measurement": "effect on tubulin deacetylation / α-tubulin acetylation in cells", "setting": "α-tubulin deacetylation; [1]", "value": "did not affect histone or tubulin deacetylation"},
      {"measurement": "effect on histone deacetylation / lysine or histone acetylation in cells", "setting": "histone deacetylation", "value": "inactivity; also recorded: had no effect on α-tubulin or histone acetylation"},
      {"measurement": "effect on histone deacetylation / lysine or histone acetylation in cells", "setting": "histone deacetylation; [1]", "value": "did not affect histone or tubulin deacetylation"},
      {"measurement": "inhibition of TDAC activity of wild-type HDAC6F", "setting": "HDAC6F", "value": "did not; also recorded: not inhibited by the addition of niltubacin or trapoxin"}
    ]},
    {"smiles": "O=C(CCCCCCC(=O)Nc1ccc(C2OC(CSc3nc(-c4ccccc4)c(-c4ccccc4)o3)CC(c3ccc(CO)cc3)O2)cc1)NO", "note": "(stereo not shown) [JCWII169]", "values": [
      {"measurement": "potency of inducing α-tubulin acetylation relative to tubacin", "setting": "α-tubulin deacetylation; AcTubulin cytoblot (enantiotubacin), cells (biotubacin)", "value": "equally as potent as tubacin"},
      {"measurement": "selectivity as TDAC inhibitor relative to tubacin (fold less selective)", "setting": "α-tubulin deacetylation; after re-synthesis and retesting, unpublished data", "value": "~5", "unit": "fold"},
      {"measurement": "potency and selectivity of the enantiomers JCWII114 and JCWII169 compared", "setting": "α-tubulin deacetylation; immunofluorescence and Western blot, A549 cells, 5 h or 18 h", "value": "No significant difference in selectivity or potency"}
    ]},
    {"smiles": "O=C1N[C@@H](Cc2ccccc2)C(=O)N2CCC[C@@H]2C(=O)N[C@@H](CCCCCC(=O)[C@@H]2CO2)C(=O)N[C@H]1Cc1ccccc1", "note": "[trapoxin, trapoxin B, reference compound] (cyclo(FF[dP][Aoe]))", "values": [
      {"measurement": "effect on tubulin deacetylation / α-tubulin acetylation in cells", "setting": "α-tubulin deacetylation", "value": "have no effect upon α-tubulin acetylation levels"},
      {"measurement": "inhibition of TDAC activity of wild-type HDAC6F", "setting": "HDAC6F", "value": "not inhibited by the addition of niltubacin or trapoxin"},
      {"measurement": "inhibition of TDAC activity of wild-type HDAC6F", "setting": "HDAC6F; listed as trapoxin B", "value": "did not"}
    ]}
  ]
}
